{"source": "paper PMC4281103", "about": "(Journal of Medicinal Chemistry, 2014)", "key": {"[1]": {"test_system": "male Sprague–Dawley rats", "details": "rat, in vivo; cited from earlier work"}, "[2]": {"target": "human μ-opioid receptor (Homo sapiens, UniProt P35372)", "sequence (P35372 whole entry)": "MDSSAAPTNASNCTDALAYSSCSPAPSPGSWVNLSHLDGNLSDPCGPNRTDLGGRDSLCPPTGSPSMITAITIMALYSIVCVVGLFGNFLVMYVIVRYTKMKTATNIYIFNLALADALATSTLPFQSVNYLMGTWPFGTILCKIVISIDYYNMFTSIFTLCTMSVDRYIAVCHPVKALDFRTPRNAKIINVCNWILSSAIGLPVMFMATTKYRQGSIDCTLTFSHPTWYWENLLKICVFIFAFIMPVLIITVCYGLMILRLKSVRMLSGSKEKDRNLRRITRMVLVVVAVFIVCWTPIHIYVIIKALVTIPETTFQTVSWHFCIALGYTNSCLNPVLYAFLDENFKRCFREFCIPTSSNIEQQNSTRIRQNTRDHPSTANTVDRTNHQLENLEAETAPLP", "experiment": "Inhibition of forskolin-induced cAMP accumulation in MOR-CHO cells", "type": "cell-based", "details": "selectivity for KOR"}, "[3]": {"test_system": "male Sprague–Dawley rats", "experiment": "Rat spontaneous locomotor activity", "type": "in vivo", "details": "acute ip; 2 1.0 mg/kg, 24 1.0 mg/kg, 36 0.3 mg/kg; total ambulatory counts over 60 min"}, "[4]": {"test_system": "male Sprague–Dawley rats", "experiment": "Rat reinstatement assay: cocaine-prime-induced reinstatement of drug seeking", "type": "in vivo", "details": "for inactive lever pressing during self-administration, extinction and reinstatement: 2 1.0 mg/kg, 24 1.0 mg/kg, 36 0.3 mg/kg; for dose required to significantly reduce active lever responses: ip, cocaine-prime-induced reinstatement, rat"}, "[5]": {"target": "human κ-opioid receptor (Homo sapiens, UniProt P41145)", "sequence (P41145 whole entry)": "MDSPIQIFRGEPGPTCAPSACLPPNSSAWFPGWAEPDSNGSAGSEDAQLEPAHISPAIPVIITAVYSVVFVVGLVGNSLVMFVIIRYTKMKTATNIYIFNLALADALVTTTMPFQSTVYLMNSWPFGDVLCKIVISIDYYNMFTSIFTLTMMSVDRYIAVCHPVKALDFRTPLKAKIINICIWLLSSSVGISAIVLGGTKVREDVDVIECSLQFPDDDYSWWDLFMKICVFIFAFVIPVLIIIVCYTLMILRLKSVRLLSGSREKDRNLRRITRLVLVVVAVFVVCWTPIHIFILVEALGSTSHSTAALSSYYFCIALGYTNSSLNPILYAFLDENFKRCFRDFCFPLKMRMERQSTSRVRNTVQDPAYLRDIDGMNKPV", "type": "cell-based"}}, "data": [{"molecule": "COC(=O)[C@@H]1C[C@H](OC(C)=O)C(=O)[C@H]2[C@@]1(C)CC[C@H]1C(=O)O[C@H](c3ccoc3)C[C@]21C", "note": "[Compound 1, Salvinorin A]", "values": [{"measurement": "effect on drug-seeking behavior and spontaneous locomotor activity", "setting": "[1]", "result": "reduces drug-seeking behavior at a dose that does not affect spontaneous locomotor activity"}]}, {"molecule": "COC(=O)[C@@H]1C[C@H](OC(C)=O)C(=O)[C@H]2[C@@]1(C)CC[C@H]1C(=O)O[C@H](c3ccoc3Br)C[C@]21C", "note": "[Compound 2]", "values": [{"measurement": "activity at the MOR", "setting": "[2]", "result": "no activity at the MOR"}, {"measurement": "effect on spontaneous locomotor activity vs vehicle-treated animals", "setting": "[3]", "result": "no significant difference"}, {"measurement": "inactive lever pressing during self-administration, extinction and reinstatement", "setting": "[4]", "result": "no significant changes"}, {"measurement": "dose required to significantly reduce active lever responses", "setting": "[4]", "result": 0.3, "unit": "mg/kg"}]}, {"molecule": "COC(=O)[C@@H]1C[C@H](OC(C)=O)C(=O)[C@H]2[C@@]1(C)CC[C@H]1C(=O)O[C@H](c3ccoc3C)C[C@]21C", "note": "[Compound 24]", "values": [{"measurement": "activity at the MOR", "setting": "[2]", "result": "no activity at the MOR"}, {"measurement": "effect on spontaneous locomotor activity vs vehicle-treated animals", "setting": "[3]", "result": "no significant difference"}, {"measurement": "inactive lever pressing during self-administration, extinction and reinstatement", "setting": "[4]", "result": "no significant changes"}]}, {"molecule": "C#Cc1occc1[C@@H]1C[C@]2(C)[C@H]3C(=O)[C@@H](OC(C)=O)C[C@@H](C(=O)OC)[C@]3(C)CC[C@H]2C(=O)O1", "note": "[Compound 36]", "values": [{"measurement": "activity at the MOR", "setting": "[2]", "result": "no activity at the MOR"}, {"measurement": "effect on spontaneous locomotor activity vs vehicle-treated animals", "setting": "[3]", "result": "no significant difference"}, {"measurement": "inactive lever pressing during self-administration, extinction and reinstatement", "setting": "[4]", "result": "no significant changes"}, {"measurement": "dose required to significantly reduce active lever responses", "setting": "[4]", "result": 0.1, "unit": "mg/kg"}]}, {"molecule": "COC(=O)[C@@H]1C[C@H](OC(C)=O)C(=O)[C@H]2[C@@]1(C)CC[C@H]1C(=O)O[C@H](c3ccoc3C=O)C[C@]21C", "note": "[Compound 49, (2S,4aR,6aR,7R,9S,10aS,10bR)-Methyl 9-Acetoxy-2-(2-formylfuran-3-yl)-6a,10b-dimethyl-4,10-dioxododecahydro-1H-benzo[f]isochromene-7-carboxylate]", "values": [{"measurement": "times less potent than 29 (KOR)", "setting": "[5]", "result": "approximately 7 times"}]}, {"molecule": "COC(=O)[C@@H]1C[C@H](OC(C)=O)C(=O)[C@H]2[C@@]1(C)CC[C@H]1C(=O)O[C@H](c3ccoc3C#N)C[C@]21C", "note": "[Compound 50, (2S,4aR,6aR,7R,9S,10aS,10bR)-Methyl 9-Acetoxy-2-(2-cyanofuran-3-yl)-6a,10b-dimethyl-4,10-dioxododecahydro-1H-benzo[f]isochromene-7-carboxylate]", "values": [{"measurement": "times less potent than 36 (KOR)", "setting": "[5]", "result": "more than 500 times"}]}]}
